Literature values in US7326706B2, “Pyrazine modulators of cannabinoid receptors” (Bristol-Myers Squibb Company, priority 2003, dated 2008).

How the values were obtained:
[1] = chronic administration for two weeks
[2] = 16 week trial period

SMILES	body weight [1]	body weight in human subjects [2]
Cc1c(C(=O)NN2CCCCC2)nn(-c2ccc(Cl)cc2Cl)c1-c1ccc(I)cc1 [AM-251]	substantial body weight reduction	–
Cc1c(C(=O)NN2CCCCC2)nn(-c2ccc(Cl)cc2Cl)c1-c1ccc(Cl)cc1 [SR-141716]	–	dose-dependently reduced body weight
